Where a SMILES comes first, the peptide text is derived from it. [ ]: non-standard residue; d: D form. NMeW = CN[C@@H](Cc1c[nH]c2ccccc12)C(=O)O; Phe(3-Br) = N[C@@H](Cc1cccc(Br)c1)C(=O)O; Aad = N[C@@H](CCCC(=O)O)C(=O)O; Aoc(2) = CCCCCC[C@H](N)C(=O)O; Nle = CCCC[C@H](N)C(=O)O
Target: T1, CCK-B receptors (CHO-CCK) (Homo sapiens, UniProt P32239)
T1 construct: expressed in transfected cells; host or cells: CHO (CHO-CCK model cells)
T1 sequence (P32239 1-447): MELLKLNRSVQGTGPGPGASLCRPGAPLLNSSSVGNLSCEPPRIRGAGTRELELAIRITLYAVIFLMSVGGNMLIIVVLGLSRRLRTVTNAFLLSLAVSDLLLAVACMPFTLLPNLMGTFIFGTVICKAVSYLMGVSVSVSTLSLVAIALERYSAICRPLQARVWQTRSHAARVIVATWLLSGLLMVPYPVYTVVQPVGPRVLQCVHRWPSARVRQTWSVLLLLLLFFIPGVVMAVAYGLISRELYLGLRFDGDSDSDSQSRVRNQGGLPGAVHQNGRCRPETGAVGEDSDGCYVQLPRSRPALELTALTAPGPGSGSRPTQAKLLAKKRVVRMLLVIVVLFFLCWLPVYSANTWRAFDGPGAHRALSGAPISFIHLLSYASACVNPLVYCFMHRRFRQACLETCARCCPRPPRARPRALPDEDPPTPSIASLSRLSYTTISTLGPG
Assay: Calcium flux (Fluo-8) agonist test on CHO-CCK model cells
Format: cell-based
Settings: for EC50 / % Act-Ave @ 1 nM / % Act-Ave @ 50 nM: CHO-CCK cells; for EC50: bound in μM; for Agonistic Activity (%) at 10 μM: compound at 10 μM, percentage of signal of 20 nM CCK8 alone; for % Act-Ave @ 1 nM: compound at 1 nM; for % Act-Ave @ 50 nM: compound at 50 nM
Description: • To detect changes in intracellular calcium ion concentration after the compound acts on model cells containing CCK-B receptors (CHO-CCK).
• 1. The compound was formulated to a 10 mM mother liquor with DMSO, and then diluted into a series of 9 concentrations with a 3-fold gradient to form a 1000× stock solution.
2.1 Agonist • The compound stock solution was subjected to 200-fold dilution with HHBS buffer to form a 5× working solution.
• 1. Plate CHO-CCK cells in a 96-well plate with media containing 1% FBS, 30,000 cells/well/100 μL, and incubate overnight at 37° C. • 2. Prepare 1×Fluo-8 analysis buffer: mix 9 mL of HHBS, 1 mL of 10× Pluronic F127 Plus and 20 μL of Fluo-8 thoroughly for later use. • 3. Add Fluo-8 dye working solution to the cell plate, 100 μL/well. First incubate in a 37° C. incubator for 30 min, and then take it out and incubate at room temperature in the dark for 30 min. • 4. In the process of incubating cells, the compounds to be detected were prepared with HHBS. • 5.
The agonism/antagonism EC50 of the compound can be obtained by plotting the fitting curve with the agonism/antagonism percentage as Y-axis and the concentration of the compound as X-axis.

Row | Compound | Agonistic Activity (%) at 10 μM [%] | also measured
1 | CSCC[C@@H](NC(=O)[C@@H](CC(=O)O)NC(=O)[C@H](N)Cc1ccccc1)C(=O)N[C@H](Cc1c[nH]c2ccccc12)C(=O)O [HT-7, D-Phe-D-Asp-D-Met-D-Trp-COOH] (H-[dF][dD][dM][dW]-OH) |  | EC50 (compound alone): > 10 µM
2 | C[S+]([O-])CC[C@H](NC(=O)[C@H](N)Cc1c[nH]c2ccccc12)C(=O)N[C@@H](CC(=O)O)C(=O)N[C@@H](Cc1ccc(C#N)cc1)C(N)=O (stereo partly drawn) [HT-49, D-Trp-Met(O)-Asp-Phe(4-CN)-NH2] | 1.03 | 
3 | COC(=O)C[C@H](NC(=O)[C@H](CCSC)NC(=O)[C@H](N)Cc1c[nH]c2ccccc12)C(=O)N[C@@H](Cc1ccc(C#N)cc1)C(N)=O [HT-83, D-Trp-Met-Asp(Ome)-Phe(4-CN)-NH2] | 1.91 | 
4 | CS(=O)(=O)CC[C@H](NC(=O)[C@H](N)Cc1c[nH]c2ccccc12)C(=O)N[C@@H](CC(=O)O)C(=O)N[C@@H](Cc1ccc([N+](=O)[O-])cc1)C(N)=O [HT-67, D-Trp-Met(O2)-Asp-Phe(4-NO2)-NH2] | −1.49 | 
5 | COC(=O)C[C@H](NC(=O)[C@H](CCSC)NC(=O)[C@H](N)Cc1c[nH]c2ccccc12)C(=O)N[C@@H](Cc1cccc(Cl)c1)C(N)=O [HT-77, D-Trp-Met-Asp(Ome)-Phe(3-Cl)-NH2] | 1.83 | 
6 | CS(=O)(=O)CC[C@H](NC(=O)[C@H](N)Cc1c[nH]c2ccccc12)C(=O)N[C@@H](CC(=O)O)C(=O)N[C@@H](Cc1ccccc1[N+](=O)[O-])C(N)=O [HT-58, D-Trp-Met(O2)-Asp-Phe(2-NO2)-NH2] | 23.63 | 
7 | COC(=O)C[C@H](NC(=O)[C@H](CCSC)NC(=O)[C@H](N)Cc1c[nH]c2ccccc12)C(=O)N[C@@H](Cc1ccccc1[N+](=O)[O-])C(N)=O [HT-75, D-Trp-Met-Asp(Ome)-Phe(2-NO2)-NH2] | −0.20 | 
8 | CS(=O)(=O)CC[C@H](NC(=O)[C@H](N)Cc1c[nH]c2ccccc12)C(=O)N[C@@H](CC(=O)OCCNc1cccc2c(O)cccc12)C(=O)N[C@@H](Cc1cccc(F)c1)C(N)=O [HT-163, D-Trp-Met(O2)-Asp(EDANS)-Phe(3-F)-NH2] | 2.64 | 
9 | CCCC[C@H](NC(=O)[C@H](Cc1c[nH]c2ccccc12)N(C)C(C)=O)C(=O)N[C@@H](CC(=O)O)C(=O)N[C@@H](Cc1cccc(Br)c1)C(N)=O [HT-269, Ac-(N-Me-Trp)-Nle-Asp-Phe(3-Br)-NH2] (Ac-[NMeW][Nle]D[Phe(3-Br)]-NH2) |  | % Act-Ave @ 1 nM: 0.05%; % Act-Ave @ 50 nM: 33.52%
10 | CSCC[C@@H](NC(=O)[C@H](CC(=O)O)NC(=O)[C@H](Cc1ccccc1)NC(C)=O)C(=O)N[C@@H](Cc1c[nH]c2ccccc12)C(=O)O [HT-5, Ac-Phe-Asp-D-Met-Trp-NH2] |  | EC50 (compound alone): > 10 µM
11 | COC(=O)C[C@H](NC(=O)[C@H](CC[S+](C)[O-])NC(=O)[C@H](N)Cc1c[nH]c2ccccc12)C(=O)N[C@@H](Cc1cc(Cl)cc(Cl)c1)C(N)=O (stereo partly drawn) [HT-123, D-Trp-Met(O)-Asp(Ome)-Phe(3,5-DiCl)-NH2] | 0.84 | 
12 | C[S+]([O-])CC[C@H](NC(=O)[C@H](N)Cc1c[nH]c2ccccc12)C(=O)N[C@@H](CC(=O)O)C(=O)N[C@@H](Cc1ccccc1)C(N)=O (stereo partly drawn) [HT-16, D-Trp-Met(O)-Asp-Phe-NH2] | 19.11 | 
13 | CS(=O)(=O)CC[C@H](NC(=O)[C@H](N)Cc1c[nH]c2ccccc12)C(=O)N[C@@H](CC(=O)O)C(=O)N[C@@H](Cc1ccc(C#N)cc1)C(N)=O [HT-66, D-Trp-Met(O2)-Asp-Phe(4-CN)-NH2] | 0.33 | 
14 | CCCCCC[C@H](NC(C)=O)C(=O)N[C@@H](CC(=O)O)C(=O)N[C@@H](Cc1cccc(Br)c1)C(N)=O [HT-281, Ac-Oa-Asp-Phe(3-Br)-NH2] (Ac-[Aoc(2)]-Asp-[Phe(3-Br)]-NH2) |  | % Act-Ave @ 1 nM: −0.09%; % Act-Ave @ 50 nM: 0.03%
15 | COC(=O)C[C@H](NC(=O)[C@H](CC[S+](C)[O-])NC(=O)[C@H](N)Cc1c[nH]c2ccccc12)C(=O)N[C@@H](Cc1ccc(F)cc1)C(N)=O (stereo partly drawn) [HT-121, D-Trp-Met(O)-Asp(Ome)-Phe(4-F)-NH2] | 10.99 | 
16 | C[S+]([O-])CC[C@H](NC(=O)[C@H](N)Cc1c[nH]c2ccccc12)C(=O)N[C@@H](CC(=O)O)C(=O)N[C@@H](Cc1ccc(Br)cc1)C(N)=O (stereo partly drawn) [HT-51, D-Trp-Met(O)-Asp-Phe(4-Br)-NH2] | 17.18 | 
17 | COC(=O)C[C@H](NC(=O)[C@H](CCS(C)(=O)=O)NC(=O)[C@H](N)Cc1c[nH]c2ccccc12)C(=O)N[C@@H](Cc1ccc([N+](=O)[O-])cc1)C(N)=O [HT-135, D-Trp-Met(O2)-Asp(Ome)-Phe(4-NO2)-NH2] | 11.52 | 
18 | C[S+]([O-])CC[C@H](NC(=O)[C@H](N)Cc1c[nH]c2ccccc12)C(=O)N[C@@H](CC(=O)O)C(=O)N[C@@H](Cc1ccc(N=[N+]=[N-])cc1)C(N)=O (stereo partly drawn) [HT-48, D-Trp-Met(O)-Asp-Phe(4-N3)-NH2] | 17.23 | 
19 | COC(=O)C[C@H](NC(=O)[C@H](CC[S+](C)[O-])NC(=O)[C@H](N)Cc1c[nH]c2ccccc12)C(=O)N[C@@H](Cc1cccc(I)c1)C(N)=O (stereo partly drawn) [HT-113, D-Trp-Met(O)-Asp(Ome)-Phe(3-I)-NH2] | 6.21 | 
20 | COC(=O)C[C@H](NC(=O)[C@H](CCSC)NC(=O)[C@H](N)Cc1c[nH]c2ccccc12)C(=O)N[C@@H](Cc1ccccc1)C(N)=O [HT-18, D-Trp-Met-Asp(OMe)-Phe-NH2] | 7.59 | 
21 | COC(=O)C[C@H](NC(=O)[C@H](CCS(C)(=O)=O)NC(=O)[C@H](N)Cc1c[nH]c2ccccc12)C(=O)N[C@@H](Cc1ccc(N=[N+]=[N-])cc1)C(N)=O [HT-133, D-Trp-Met(O2)-Asp(Ome)-Phe(4-N3)-NH2] | 8.66 | 
22 | COC(=O)C[C@H](NC(=O)[C@H](CC[S+](C)[O-])NC(=O)[C@H](N)Cc1c[nH]c2ccccc12)C(=O)N[C@@H](Cc1cccc(F)c1)C(N)=O (stereo partly drawn) [HT-112, D-Trp-Met(O)-Asp(Ome)-Phe(3-F)-NH2] | 2.89 | 
23 | C[C@@H](NC(=O)[C@H](Cc1cccc(Br)c1)NC(=O)[C@H](CC(=O)O)NC(=O)[C@H](CCCCN)NC(=O)[C@H](N)Cc1c[nH]c2ccccc12)C(N)=O [HT-288, D-Trp-Lys-Asp-Phe(3-Br)-D-Ala-NH2] (H-[dW]KD[Phe(3-Br)][dA]-NH2) |  | EC50 (Fluo-8 calcium flux): > 10 µM
24 | COC(=O)C[C@H](NC(=O)[C@H](CCS(C)(=O)=O)NC(=O)[C@H](N)Cc1c[nH]c2ccccc12)C(=O)N[C@@H](Cc1cc(Cl)cc(Cl)c1)C(N)=O [HT-140, D-Trp-Met(O2)-Asp(Ome)-Phe(3,5-DiCl)-NH2] | 10.66 | 
25 | CCCC[C@H](NC(=O)[C@H](Cc1c[nH]c2ccccc12)N(C)C(=O)[C@@H](N)CCC(=O)O)C(=O)N[C@@H](CCCC(=O)O)C(=O)N[C@@H](Cc1cccc(Br)c1)C(N)=O [HT-277, Glu-(N-Me-Trp)-Nle-Aa-Phe(3-Br)-NH2] (H-E[NMeW][Nle][Aad][Phe(3-Br)]-NH2) |  | % Act-Ave @ 1 nM: −0.13%; % Act-Ave @ 50 nM: 13.46%
26 | CSCC[C@H](NC(C)=O)C(=O)N[C@@H](CC(=O)O)C(=O)N[C@@H](Cc1cccc(Br)c1)C(N)=O [HT-282, Ac-Met-Asp-Phe(3-Br)-NH2] (Ac-Met-Asp-[Phe(3-Br)]-NH2) |  | % Act-Ave @ 1 nM: 0.13%; % Act-Ave @ 50 nM: 0.45%
27 | COC(=O)C[C@H](NC(=O)[C@H](CC[S+](C)[O-])NC(=O)[C@H](N)Cc1c[nH]c2ccccc12)C(=O)N[C@@H](Cc1ccc(Cl)cc1)C(N)=O (stereo partly drawn) [HT-120, D-Trp-Met(O)-Asp(Ome)-Phe(4-Cl)-NH2] | −1.00 | 

— patent US20240415918A1, “Polypeptide and its use as a CCK receptor agonist/antagonist” (Centre for Regenerative Medicine & Health, Hong Kong …, priority 2021, published 2024)
